Drawing on patent publication US8426446B2, “Acrylamide derivative and use thereof in manufacture of medicament” (Beijing Shiqiao Biopharm Co. Ltd., priority 2009, dated 2013), this text covers IC50 for 31 compounds.

The test system of the first assay is Human Leukemia Cell K562. The assay can be described thus: Inhibitory effects on Human Leukemia Cell K562 (MTT). The assay is classed as cell-based. As to conditions: Homo sapiens, K562 cells, 72 h~120 h. The procedure:
K562 cells were seeded in RPMI1640 cell culture solution containing 10% of fetal calf serum (supplemented with 100 ku/L of penicillin and streptomycin each). Culture dish was placed in the cell incubator under 5% of CO2 at 37° C. The culture solution was centrifuged and replaced every 2-3 days to passage and collect cells.
Cells in logarithmic growth phase were formulated into the cell suspensions at the required concentration with RPMI1640 culture solution containing 10% fetal calf serum. The resulting mixture was added to 96-wells cell culture plate at 3,000 cells per well (100 μl); after 12 hours of culture, to each well was added different amount of stock solution. The final concentrations of the samples are 100 μg/ml, 10 μg/ml, 1 μg/ml, […], and 0.01 μg/ml respectively in triplicate. After 72 h˜120 h, supernatant was discarded. To each well was added […] fresh serum-free culture solution containing 5 mg/ml blue tetrazolium (MTT). After culturing for 4 hours at 37° C., the mixture was centrifuged at 3000 rpm/min and the supernatant was discarded. Formazan was dissolved with 200 μl DMSO. After vortex oscillation for 1 min, absorbance value (OD-value) was measured on microplate reader at the wavelength of 570/450 nm. Inhibition ratio=(control group OD-value−drug group OD-value)/control group OD-value×100%.
As usually defined, the IC50 is the concentration at which inhibition is half-maximal. A high value points to weaker potency. In turn, `Cc1ccc(NC(=O)c2ccc(CN3CCC(N(C)C)C3)c(C(F)(F)F)c2)cc1NC(=O)/C=C/c1cccnc1` [compound 23, N-(4-methyl-3-(3-(pyridin-3-yl)acrylamido)phenyl)-4-(((S)-3-(dimethylamino)pyrrolidin-1-yl)methyl)-3-(trifluoromethyl)benzamide] showed an IC50 of under 1 nM.

`Cc1ccc(NC(=O)c2ccc(CN3CCCN(C)CC3)c(C(F)(F)F)c2)cc1NC(=O)/C=C/c1cccnc1` [compound 25, N-(4-methyl-3-(3-(pyridin-3-yl)acrylamido)phenyl)-4-((4-methyl-1,4-homopiperazin-1-yl)methyl)-3-(trifluoromethyl)benzamide] showed an IC50 of 2 to 20 nM.

In turn, `Cc1ccc(NC(=O)c2ccc(CN3CCN(C)CC3)c(Br)c2)cc1NC(=O)/C=C/c1cccnc1` [compound 26, N-(4-methyl-3-(3-(pyridin-3-yl)acrylamido)phenyl)-4-((4-dimethylpiperazin-1-yl)methyl)-3-bromobenzamide] showed an IC50 of 2 to 20 nM. Take `Cc1ccc(NC(=O)c2cc(C(F)(F)F)cc(C(F)(F)F)c2)cc1NC(=O)/C=C/c1cncnc1` [compound 31, N-(4-methyl-3-(3-(pyrimidin-5-yl)acrylamido)phenyl)-3,5-bis-(trifluoromethyl)benzamide]: the IC50 is under 1 nM. The compound `Cc1ccc(NC(=O)c2ccc(C)c(C(F)(F)F)c2)cc1NC(=O)/C=C/c1cncnc1` [compound 32, N-(4-methyl-3-(3-(pyrimidin-5-yl)acrylamido)phenyl)-4-methyl-3-(trifluoromethyl)benzamide] returned an IC50 of under 1 nM. With `Cc1ccc(NC(=O)c2cc(F)cc(C(F)(F)F)c2)cc1NC(=O)/C=C/c1cncnc1` [compound 33, N-(4-methyl-3-(3-(pyrimidin-5-yl)acrylamido)phenyl)-5-fluoro-3-(trifluoromethyl)benzamide], the IC50 was under 1 nM. Same read-out and setting: to `Cc1ccc(NC(=O)c2ccc(CN3CCN(C)CC3)c(C(F)(F)F)c2)cc1NC(=O)/C=C/c1cncnc1` [compound 39, N-(4-methyl-3-(3-(pyrimidin-5-yl)acrylamido)phenyl)-4-((4-methylpiperazin-1-yl)methyl)-3-(trifluoromethyl)benzamide] belongs under 1 nM. The same measure, in the same setting: to `Cc1ccc(NC(=O)c2ccc(CN3CC[C@@H](N(C)C)C3)c(C(F)(F)F)c2)cc1NC(=O)/C=C/c1cncnc1` [compound 42, N-(4-methyl-3-(3-(pyrimidin-5-yl)acrylamido)phenyl)-4-(((R)-3-(dimethylamino)pyrrolidin-1-yl)methyl)-3-(trifluoromethyl)benzamide] belongs under 1 nM; to `Cc1ccc(NC(=O)c2ccc(CN3CCC(N(C)C)C3)c(C(F)(F)F)c2)cc1NC(=O)/C=C/c1cncnc1` [compound 43, N-(4-methyl-3-(3-(pyrimidin-5-yl)acrylamido)phenyl)-4-(((S)-3-(dimethylamino)pyrrolidin-1-yl)methyl)-3-(trifluoromethyl)benzamide], under 1 nM; to `Cc1ccc(C(=O)Nc2ccc(F)c(Cl)c2)cc1NC(=O)/C=C/c1cccnc1` [compound 50, N-(3-chloro-4-fluorophenyl)-4-methyl-3-(3-(pyridin-3-yl)acrylamido)benzamide], 2 to 20 nM. Same read-out and setting: next, `Cc1ccc(C(=O)Nc2cccc(C(F)(F)F)c2)cc1NC(=O)/C=C/c1cccnc1` [compound 51, N-(3-(trifluoromethyl)phenyl)-4-methyl-3-(3-(pyridin-3-yl)acrylamido)benzamide]: under 2 nM. With `Cc1ccc(C(=O)Nc2ccc(Br)cc2F)cc1NC(=O)/C=C/c1cccnc1` [compound 52, N-(4-bromo-2-fluorophenyl)-4-methyl-3-(3-(pyridin-3-yl)acrylamido)benzamide], the IC50 was under 2 nM. As for `Cc1ccc(C(=O)Nc2ccc(OC(F)(F)F)cc2)cc1NC(=O)/C=C/c1cccnc1` [compound 53, N-(4-(trifluoromethoxy)phenyl)-4-methyl-3-(3-(pyridin-3-yl)acrylamido)benzamide], the IC50 is under 1 nM. For `Cc1cn(-c2ccc(NC(=O)c3ccc(C)c(NC(=O)/C=C/c4cccnc4)c3)cc2C(F)(F)F)cn1` [compound 55, N-(4-(4-methyl-1H-imidazol-1-yl)-3-(trifluoromethyl)phenyl)-4-methyl-3-(3-(pyridin-3-yl)acrylamido)benzamide], the IC50 was under 2 nM. With `Cc1ccc(C(=O)Nc2ccc(Cl)c(Cl)c2)cc1NC(=O)/C=C/c1cccnc1` [compound 56, N-(3,4-dichlorophenyl)-4-methyl-3-(3-(pyridin-3-yl)acrylamido)benzamide], the half-inhibitory concentration (IC50) lay in the range of 2 to 20 nM. The same measure, in the same setting: next, `Cc1ccc(C(=O)Nc2cc(C(F)(F)F)ccc2Cl)cc1NC(=O)/C=C/c1cccnc1` [compound 57, N-(2-chloro-5-(trifluoromethyl)phenyl)-4-methyl-3-(3-(pyridin-3-yl)acrylamido)benzamide]: 2 to 20 nM; `Cc1ccc(C(=O)Nc2ccc(Cl)c(C(F)(F)F)c2)cc1NC(=O)/C=C/c1cccnc1` [compound 58, N-(4-chloro-3-(trifluoromethyl)phenyl)-4-methyl-3-(3-(pyridin-3-yl)acrylamido)benzamide]: under 1 nM; `Cc1ccc(C(=O)Nc2ccc(F)c(C(F)(F)F)c2)cc1NC(=O)/C=C/c1cccnc1` [compound 60, N-(4-fluoro-3-(trifluoromethyl)phenyl)-4-methyl-3-(3-(pyridin-3-yl)acrylamido)benzamide]: under 1 nM. Compound `Cc1ccc(NC(=O)c2ccc(C)c(NC(=O)/C=C/c3cccnc3)c2)cc1F` [compound 61, N-(3-fluoro-4-methylphenyl)-4-methyl-3-(3-(pyridin-3-yl)acrylamido)benzamide] came in with an IC50 of under 1 nM. For `Cc1ccc(C(=O)Nc2ccc(C)c(C(F)(F)F)c2)cc1NC(=O)/C=C/c1cccnc1` [compound 62, N-(4-methyl-3-(trifluoromethyl)phenyl)-4-methyl-3-(3-(pyridin-3-yl)acrylamido)benzamide], the IC50 was under 1 nM.

Compound `Cc1ccc(NC(=O)c2ccc(C)c(NC(=O)/C=C/c3cccnc3)c2)cc1` [compound 66, N-(4-(methyl)phenyl)-4-methyl-3-(3-(pyridin-3-yl)acrylamido)benzamide] yielded an IC50 of 2 to 20 nM. As to `Cc1ccc(C(=O)Nc2c(C)cccc2Cl)cc1NC(=O)/C=C/c1cccnc1` [compound 67, N-(2-chloro-6-methylphenyl)-4-methyl-3-(3-(pyridin-3-yl)acrylamido)benzamide], the IC50 is 2 to 20 nM. The same measure, in the same setting: next, `Cc1ccc(C(=O)Nc2ccc(N3CCOCC3)c(C(F)(F)F)c2)cc1NC(=O)/C=C/c1cccnc1` [compound 69, N-(4-(morpholin-4-yl)-3-(trifluoromethyl)phenyl)-4-methyl-3-(3-(pyridin-3-yl)acrylamido)benzamide]: under 1 nM. The compound `Cc1ccc(C(=O)Nc2ccc(N3CCN(C)CC3)c(C(F)(F)F)c2)cc1NC(=O)/C=C/c1cccnc1` [compound 71, N-(4-(4-methylpiperazin-1-yl)-3-(trifluoromethyl)phenyl)-4-methyl-3-(3-(pyridin-3-yl)acrylamido)benzamide] displayed an IC50 of under 1 nM. Compound `CCN1CCN(c2ccc(NC(=O)c3ccc(C)c(NC(=O)/C=C/c4cccnc4)c3)cc2C(F)(F)F)CC1` [compound 74, N-(4-(4-ethylpiperazin-1-yl)-3-(trifluoromethyl)phenyl)-4-methyl-3-(3-(pyridin-3-yl)acrylamido)benzamide] registered an IC50 of 2 to 20 nM.

As to `Cc1ccc(C(=O)Nc2ccc(C)c(C(F)(F)F)c2)cc1NC(=O)/C=C/c1cncnc1` [compound 77, N-(4-methyl-3-(trifluoromethyl)phenyl)-4-methyl-3-(3-(pyrimidin-5-yl)acrylamido)benzamide], the IC50 is under 1 nM. As for `Cc1ccc(C(=O)Nc2ccc(N3CCOCC3)c(C(F)(F)F)c2)cc1NC(=O)/C=C/c1cncnc1` [compound 78, N-(4-(morpholin-4-yl)-3-(trifluoromethyl)phenyl)-4-methyl-3-(3-(pyrimidin-5-yl)acrylamido)benzamide], the IC50 is under 1 nM. The same measure, in the same setting: next, `Cc1ccc(C(=O)Nc2ccc(Cl)c(C(F)(F)F)c2)cc1NC(=O)/C=C/c1cncnc1` [compound 79, N-(4-chloro-3-(trifluoromethyl)phenyl)-4-methyl-3-(3-(pyrimidin-5-yl)acrylamido)benzamide]: 2 to 20 nM; `Cc1ccc(NC(=O)c2ccc(C)c(NC(=O)/C=C/c3cncnc3)c2)cc1F` [compound 80, N-(3-fluoro-4-methylphenyl)-4-methyl-3-(3-(pyrimidin-5-yl)acrylamido)benzamide]: 2 to 20 nM.

The assay is the same for the next values; noted with them: K562 cells, 72 h~120 h.
In the case of `Cc1ccc(NC(=O)c2ccc(CN3CCC(N(C)C)C3)c(C(F)(F)F)c2)cc1NC(=O)/C=C/c1cccnc1` (stereo not shown) [compound 24, N-(4-methyl-3-(3-(pyridin-3-yl)acrylamido)phenyl)-4-((3-(dimethylamino)pyrrolidin-1-yl)methyl)-3-(trifluoromethyl)benzamide], the IC50 was under 1 nM. `Cc1ccc(NC(=O)c2ccc(CN3CCC(N(C)C)C3)c(C(F)(F)F)c2)cc1NC(=O)/C=C/c1cncnc1` (stereo not shown) [compound 44, N-(4-methyl-3-(3-(pyrimidin-5-yl)acrylamido)phenyl)-4-((3-(dimethylamino)pyrrolidin-1-yl)methyl)-3-(trifluoromethyl)benzamide] returned an IC50 of under 1 nM.
